One assay deals with GST-Bcl-2 (Homo sapiens, UniProt P10415). The assay can be described thus: TR-FRET Bcl-2 binding assay (F-Bak peptide probe). Conditions: GST-Bcl-2 1 nM, F-Bak peptide probe 100 nM, Tb-anti-GST 1 nM; Wang's equation; '<' = below limit of detection. How it is done: Determination of the utility of compounds of this invention as binders to and inhibitors of anti-apoptotic Bcl-2 proteins was performed using the Time Resolved-Fluorescence Resonance Energy Transfer (TR-FRET) Assay. Tb-anti-GST antibody was purchased from Invitrogen (Catalog No. PV4216).
Representative compounds were serially diluted in dimethyl sulfoxide (DMSO) starting at 50 μM (2× starting concentration; 10% DMSO) and 10 μL were transferred into a 384-well plate. The samples are then mixed on a shaker for 1 minute and incubated for an additional 3 hours at room temperature. For each assay, the probe/antibody and protein/probe/antibody were included on each assay plate as negative and positive controls, respectively. Fluorescence was measured on the Envision (Perkin Elmer) using a 340/35 nm excitation filter and 520/525 (F-Bak peptide) and 495/510 nm (Tb-labeled […] antibody) emission filters. Dissociation constants (Ki) are shown in TABLE 2 below and were determined using Wang's equation (Wang Z.-X., An Exact Mathematical Expression For Describing Competitive Binding Of Two Different Ligands To A Protein Molecule. FEBS Lett. 1995, 360:111-4).
The samples were then mixed on a shaker for 1 minute and incubated for an additional 3 hours at room temperature. For each assay, the probe/antibody and protein/probe/antibody were included on each assay plate as negative and positive controls, respectively. Fluorescence was measured on the Envision (Perkin Elmer) using a 340/35 nm excitation filter and 520/525 (F-Bak peptide) and 495/510 nm (Tb-labeled anti-Histidine antibody) emission filters.
Inhibition constants (Ki) for compounds were determined using Wang's equation (Wang Zx. An Exact Mathematical Expression For Describing Competitive Binding Of Two Different Ligands To A Protein Molecule. FEBS Lett. 1995, 360:111-4).
The inhibition constant (Ki) is the dissociation constant of an enzyme-inhibitor complex or a protein/small molecule complex, wherein the small molecule is inhibiting binding of one protein to another protein or peptide. So a large Ki value indicates a low binding affinity and a small Ki value indicates a high binding affinity. […] The compounds are therefore expected to have utility in treatment of diseases during which anti-apoptotic Bcl-2 protein is expressed. Biological Data
A general note: TR-FRET usually uses a lanthanide donor and a delayed reading to cut background.

The test system of another assay is RS4;11 cells. The experiment in a line: RS4;11 cell viability assay (CellTiter Glo). The note with it: 10% human serum, 48 hours. The assay is classed as cell-based. The essentials:
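Cells seeded at 50,000 per well and exposed to compounds for 48 h at 37 C, 5% CO2 in the presence of 10% human serum. Viability read by CellTiter Glo; EC50 derived from percentage of viable cells versus untreated controls.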
(In general: Cellular ATP, detected with luciferase, serves as a proxy for viable cell number.)

Another assay deals with lymphocytes. The assay can be described thus: Lymphocyte reduction in C57BL/6 mice. Conditions: Mus musculus, ip. Format: in vivo. The procedure: An experiment was performed to evaluate the effect of Bcl-2 selective/Bcl-xL sparing compounds on immune cells and platelets, as evaluated in C57Bl/6 mice. Mice were treated four days with compounds (doses of 30 mg/kg, administered by intraperitoneal injection every day) and cell numbers were measured with a Cell Dyn hematology analyzer 24 hours after the first and last doses. Exposure of the compound (area under the curve) was calculated by using time points of 1, 6, 10 and 24 hours after the last dose.

[1] abbreviates: 30 mg/kg intraperitoneal every day for four days, 24 hours after the last dose, read-out: Lymphocyte reduction % inh. day 4.
[2] abbreviates: 30 mg/kg intraperitoneal every day, 24 hours after the first dose, read-out: Lymphocyte reduction % inh. day 1.

Molecules are shown by their SMILES. Where two headings read alike, the source gives them in different places.

GST-Bcl-2, sequence (P10415 whole entry): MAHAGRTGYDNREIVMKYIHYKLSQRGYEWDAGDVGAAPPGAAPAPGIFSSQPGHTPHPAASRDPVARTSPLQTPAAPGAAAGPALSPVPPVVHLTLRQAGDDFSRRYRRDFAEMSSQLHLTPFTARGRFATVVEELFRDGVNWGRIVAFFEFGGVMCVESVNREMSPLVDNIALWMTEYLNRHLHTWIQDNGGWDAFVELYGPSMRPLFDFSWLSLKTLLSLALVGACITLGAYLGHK

Regarding `CC1(C)CCC(CN2CCN(c3ccc(C(=O)NS(=O)(=O)c4ccc(NC[C@@H]5[C@H]6COC[C@@H]56)c([N+](=O)[O-])c4)c(Oc4cnc5[nH]ccc5c4)c3)CC2)=C(c2ccc(Cl)cc2)C1` [Example 14, 4-(4-{[2-(4-chlorophenyl)-4,4-dimethylcyclohex-1-en-1-yl]methyl}piperazin-1-yl)-N-[(3-nitro-4-{[(1R,5S,6S)-3-oxabicyclo[3.1.0]hex-6-ylmethyl]amino}phenyl)sulfonyl]-2-(1H-pyrrolo[2,3-b]pyridin-5-yloxy)benzamide], the Ki (commonly a measure of affinity in units of concentration, obtained from inhibition or displacement) at GST-Bcl-2 is under 0.1 nM. In the assay on RS4;11 cells, a half-maximal effect (EC50) was put at 10 nM. Further, the inhibition at 30 mg/kg was 54% in the assay on lymphocytes (setting [1]) and 61% in the assay on lymphocytes (setting [2]).
In turn, `CC1(C)CCC(CN2CCN(c3ccc(C(=O)NS(=O)(=O)c4ccc(NCC5(O)COC5)c([N+](=O)[O-])c4)c(Oc4cnc5[nH]ccc5c4)c3)CC2)=C(c2ccc(Cl)cc2)C1` [Example 15, 4-(4-{[2-(4-chlorophenyl)-4,4-dimethylcyclohex-1-en-1-yl]methyl}piperazin-1-yl)-N-[(4-{[(3-hydroxyoxetan-3-yl)methyl]amino}-3-nitrophenyl)sulfonyl]-2-(1H-pyrrolo[2,3-b]pyridin-5-yloxy)benzamide] came in with a Ki at GST-Bcl-2 of under 0.1 nM. For the same molecule, the response with RS4;11 cells was half-maximal at 9.3 nM (EC50). The inhibition at 30 mg/kg in the assay with lymphocytes (setting [1]) and in the assay with lymphocytes (setting [2]) was under 15% throughout.
`CC1(C)CCC(CN2CCN(c3ccc(C(=O)NS(=O)(=O)c4ccc(NN5CCOCC5)c([N+](=O)[O-])c4)c(Oc4cnc5[nH]ccc5c4)c3)CC2)=C(c2ccc(Cl)cc2)C1` [Example 16, 4-(4-{[2-(4-chlorophenyl)-4,4-dimethylcyclohex-1-en-1-yl]methyl}piperazin-1-yl)-N-{[4-(morpholin-4-ylamino)-3-nitrophenyl]sulfonyl}-2-(1H-pyrrolo[2,3-b]pyridin-5-yloxy)benzamide] yielded a Ki at GST-Bcl-2 of under 0.1 nM. For the same molecule, the EC50 – broadly, the concentration at which the effect is half-maximal – with RS4;11 cells was 67 nM. The inhibition at 30 mg/kg with lymphocytes (setting [1]) and in the assay on lymphocytes (setting [2]) was under 15% each time.
`CC1(C)CCC(CN2CCN(c3ccc(C(=O)NS(=O)(=O)c4ccc(NNC5CCOCC5)c([N+](=O)[O-])c4)c(Oc4cnc5[nH]ccc5c4)c3)CC2)=C(c2ccc(Cl)cc2)C1` [Example 18, 4-(4-{[2-(4-chlorophenyl)-4,4-dimethylcyclohex-1-en-1-yl]methyl}piperazin-1-yl)-N-({3-nitro-4-[2-(tetrahydro-2H-pyran-4-yl)hydrazinyl]phenyl}sulfonyl)-2-(1H-pyrrolo[2,3-b]pyridin-5-yloxy)benzamide] had a Ki at GST-Bcl-2 of under 0.1 nM. Moreover, in the assay on RS4;11 cells, the EC50 came to 47 nM. Further, the results for the inhibition at 30 mg/kg in the assay with lymphocytes (setting [1]) and with lymphocytes (setting [2]) were 25% and under 15%, respectively.
The molecule `CC1(C)CCC(CN2CCN(c3ccc(C(=O)NS(=O)(=O)c4ccc(NC[C@H]5CCCOCC5)c([N+](=O)[O-])c4)c(Oc4cnc5[nH]ccc5c4)c3)CC2)=C(c2ccc(Cl)cc2)C1` [Example 20, 4-(4-{[2-(4-chlorophenyl)-4,4-dimethylcyclohex-1-en-1-yl]methyl}piperazin-1-yl)-N-[(3-nitro-4-{[(4S)-oxepan-4-ylmethyl]amino}phenyl)sulfonyl]-2-(1H-pyrrolo[2,3-b]pyridin-5-yloxy)benzamide] yielded a Ki on GST-Bcl-2 of under 0.1 nM. The molecule also registered an EC50 in the assay on RS4;11 cells of 19 nM. In addition, the inhibition at 30 mg/kg was 57% with lymphocytes (setting [1]) and 20% in the assay on lymphocytes (setting [2]).
Taken in the same sequence, the figures for `CC1(C)CCC(CN2CCN(c3ccc(C(=O)NS(=O)(=O)c4ccc(NCC5(C)CCOCC5)c([N+](=O)[O-])c4)c(Oc4cnc5[nH]ccc5c4)c3)CC2)=C(c2ccc(Cl)cc2)C1` [Example 21, 4-(4-{[2-(4-chlorophenyl)-4,4-dimethylcyclohex-1-en-1-yl]methyl}piperazin-1-yl)-N-[(4-{[(4-methyltetrahydro-2H-pyran-4-yl)methyl]amino}-3-nitrophenyl)sulfonyl]-2-(1H-pyrrolo[2,3-b]pyridin-5-yloxy)benzamide] were under 0.1 nM, 19 nM, 61% and 61%.
Taken in the same sequence, the figures for `CC1(C)CCC(CN2CCN(c3ccc(C(=O)NS(=O)(=O)c4ccc(NCC5CCSCC5)c([N+](=O)[O-])c4)c(Oc4cnc5[nH]ccc5c4)c3)CC2)=C(c2ccc(Cl)cc2)C1` [Example 22, 4-(4-{[2-(4-chlorophenyl)-4,4-dimethylcyclohex-1-en-1-yl]methyl}piperazin-1-yl)-N-({3-nitro-4-[(tetrahydro-2H-thiopyran-4-ylmethyl)amino]phenyl}sulfonyl)-2-(1H-pyrrolo[2,3-b]pyridin-5-yloxy)benzamide] were under 0.1 nM, 28 nM, 44% and 40%.
`CC1(C)CCC(CN2CCN(c3ccc(C(=O)NS(=O)(=O)c4ccc(NCC5COC5)c([N+](=O)[O-])c4)c(Oc4cnc5[nH]ccc5c4)c3)CC2)=C(c2ccc(Cl)cc2)C1` [Example 23, 4-(4-{[2-(4-chlorophenyl)-4,4-dimethylcyclohex-1-en-1-yl]methyl}piperazin-1-yl)-N-({3-nitro-4-[(oxetan-3-ylmethyl)amino]phenyl}sulfonyl)-2-(1H-pyrrolo[2,3-b]pyridin-5-yloxy)benzamide] showed a Ki at GST-Bcl-2 of under 0.1 nM. The molecule further showed an EC50 in the assay on RS4;11 cells of 23 nM. Besides, the figures for the inhibition at 30 mg/kg in the assay on lymphocytes (setting [1]) and in the assay on lymphocytes (setting [2]) were 15% and 37%, respectively.
At GST-Bcl-2, `C[C@@H]1CO[C@H](CNc2ccc(S(=O)(=O)NC(=O)c3ccc(N4CCN(CC5=C(c6ccc(Cl)cc6)CC(C)(C)CC5)CC4)cc3Oc3cnc4[nH]ccc4c3)cc2[N+](=O)[O-])CO1` [Example 24, 4-(4-{[2-(4-chlorophenyl)-4,4-dimethylcyclohex-1-en-1-yl]methyl}piperazin-1-yl)-N-{[4-({[(2R,5R)-5-methyl-1,4-dioxan-2-yl]methyl}amino)-3-nitrophenyl]sulfonyl}-2-(1H-pyrrolo[2,3-b]pyridin-5-yloxy)benzamide] came in with a Ki of under 0.1 nM. In addition, a half-maximal effect in the assay with RS4;11 cells (EC50) was put at 14 nM. Moreover, the inhibition at 30 mg/kg in the assay with lymphocytes (setting [1]) was 58%; in the assay on lymphocytes (setting [2]), 48%.
For the molecule `CC1(C)CCC(CN2CCN(c3ccc(C(=O)NS(=O)(=O)c4ccc(NCC5(O)COCCOC5)c([N+](=O)[O-])c4)c(Oc4cnc5[nH]ccc5c4)c3)CC2)=C(c2ccc(Cl)cc2)C1` [Example 25, 4-(4-{[2-(4-chlorophenyl)-4,4-dimethylcyclohex-1-en-1-yl]methyl}piperazin-1-yl)-N-[(4-{[(6-hydroxy-1,4-dioxepan-6-yl)methyl]amino}-3-nitrophenyl)sulfonyl]-2-(1H-pyrrolo[2,3-b]pyridin-5-yloxy)benzamide], the Ki at GST-Bcl-2 was under 0.1 nM. This molecule also came in with an EC50 in the assay with RS4;11 cells of 36 nM. The inhibition at 30 mg/kg in the assay on lymphocytes (setting [1]) is 15%; in the assay with lymphocytes (setting [2]) it was 29%.
Taken in the same sequence, the figures for `CC1(C)CCC(CN2CCN(c3ccc(C(=O)NS(=O)(=O)c4ccc(NCC5(O)CCC(F)(F)CC5)c([N+](=O)[O-])c4)c(Oc4cnc5[nH]ccc5c4)c3)CC2)=C(c2ccc(Cl)cc2)C1` [Example 26, 4-(4-{[2-(4-chlorophenyl)-4,4-dimethylcyclohex-1-en-1-yl]methyl}piperazin-1-yl)-N-[(4-{[(4,4-difluoro-1-hydroxycyclohexyl)methyl]amino}-3-nitrophenyl)sulfonyl]-2-(1H-pyrrolo[2,3-b]pyridin-5-yloxy)benzamide] were under 0.1 nM, 44 nM, 23% and 38%.

Source of the values: patent US10081628B2, “Apoptosis-inducing agents for the treatment of cancer and immune and autoimmune diseases” (AbbVie Inc., priority 2013, dated 2018).
